Data published in patent publication US20230265116A1, “DEGRADATION OF (EGFR) BY CONJUGATION OF EGFR INHIBITORS WITH E3 LIGASE LIGAND AND METHODS OF USE” (BEIGENE, LTD., priority 2020, published 2023).
Counter-ions that a name gives are not always drawn.

Legend:
Assay type in all cases: cell-based
[1] = target: T1, EGFR L858R/T790M (H1975-clone #36, homozygous) (Homo sapiens, UniProt P00533, L858R/T790M); assay: EGFR degradation HTRF assay, H1975-clone #36 cells; settings: H1975 #36, 16h treatment; for Dmax: NCI-H1975, maximum percentage of degradation
T1 construct: designed to specifically target WT EGFR but preserve the L858R/T790M copy; host or cells: H1975-clone #36
T1 sequence (P00533 25-1210 T790M/L858R): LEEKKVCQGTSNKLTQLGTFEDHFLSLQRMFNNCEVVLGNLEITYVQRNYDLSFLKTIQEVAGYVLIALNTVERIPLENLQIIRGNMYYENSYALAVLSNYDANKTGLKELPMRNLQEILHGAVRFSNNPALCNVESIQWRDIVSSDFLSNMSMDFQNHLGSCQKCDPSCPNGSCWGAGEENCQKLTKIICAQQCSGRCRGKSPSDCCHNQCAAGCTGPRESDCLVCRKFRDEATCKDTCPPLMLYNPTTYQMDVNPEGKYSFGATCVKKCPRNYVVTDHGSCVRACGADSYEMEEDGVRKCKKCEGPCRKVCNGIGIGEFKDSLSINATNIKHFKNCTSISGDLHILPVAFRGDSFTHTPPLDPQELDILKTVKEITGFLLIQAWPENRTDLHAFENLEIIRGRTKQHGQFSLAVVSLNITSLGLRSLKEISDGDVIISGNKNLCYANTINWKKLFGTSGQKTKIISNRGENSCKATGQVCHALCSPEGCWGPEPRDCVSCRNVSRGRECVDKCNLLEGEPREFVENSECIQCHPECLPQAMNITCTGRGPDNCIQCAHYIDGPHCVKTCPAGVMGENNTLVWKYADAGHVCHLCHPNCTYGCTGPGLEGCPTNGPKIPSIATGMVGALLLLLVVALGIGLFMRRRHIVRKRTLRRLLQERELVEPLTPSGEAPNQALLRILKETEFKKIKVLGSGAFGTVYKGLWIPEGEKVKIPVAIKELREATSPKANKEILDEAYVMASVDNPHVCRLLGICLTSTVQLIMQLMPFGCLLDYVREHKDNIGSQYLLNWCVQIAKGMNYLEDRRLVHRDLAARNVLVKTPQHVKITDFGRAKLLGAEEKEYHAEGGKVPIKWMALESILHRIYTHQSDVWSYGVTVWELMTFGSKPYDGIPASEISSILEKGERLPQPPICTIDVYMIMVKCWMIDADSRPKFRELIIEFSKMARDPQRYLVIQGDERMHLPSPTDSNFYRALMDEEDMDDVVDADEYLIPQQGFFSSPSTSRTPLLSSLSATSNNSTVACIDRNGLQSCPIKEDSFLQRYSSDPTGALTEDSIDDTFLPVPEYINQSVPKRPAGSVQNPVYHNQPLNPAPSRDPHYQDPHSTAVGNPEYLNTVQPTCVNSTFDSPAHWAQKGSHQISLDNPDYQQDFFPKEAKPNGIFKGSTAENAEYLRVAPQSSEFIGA
How it was run: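 Eight-point, 5-fold series starting at 10 uM (0.2% DMSO) applied for 16 h, 37 °C, to a WT-EGFR-knockout H1975 clone carrying only L858R/T790M. Lysates read by HTRF overnight. Degradation percentage relative to DMSO control fitted for DC50, with Dmax as maximum degradation.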

EGFR (HCC827 cells) = target: T2, EGFR (HCC827 cells) (Homo sapiens, UniProt P00533, DEL746-750); assay: EGFR degradation HTRF assay, HCC827 cells; settings: HCC827, 16h treatment; for Dmax: maximum percentage of degradation
T2 construct: endogenous in cells; host or cells: HCC827
T2 sequence (P00533 with tags, fused parts or gaps DEL746-750): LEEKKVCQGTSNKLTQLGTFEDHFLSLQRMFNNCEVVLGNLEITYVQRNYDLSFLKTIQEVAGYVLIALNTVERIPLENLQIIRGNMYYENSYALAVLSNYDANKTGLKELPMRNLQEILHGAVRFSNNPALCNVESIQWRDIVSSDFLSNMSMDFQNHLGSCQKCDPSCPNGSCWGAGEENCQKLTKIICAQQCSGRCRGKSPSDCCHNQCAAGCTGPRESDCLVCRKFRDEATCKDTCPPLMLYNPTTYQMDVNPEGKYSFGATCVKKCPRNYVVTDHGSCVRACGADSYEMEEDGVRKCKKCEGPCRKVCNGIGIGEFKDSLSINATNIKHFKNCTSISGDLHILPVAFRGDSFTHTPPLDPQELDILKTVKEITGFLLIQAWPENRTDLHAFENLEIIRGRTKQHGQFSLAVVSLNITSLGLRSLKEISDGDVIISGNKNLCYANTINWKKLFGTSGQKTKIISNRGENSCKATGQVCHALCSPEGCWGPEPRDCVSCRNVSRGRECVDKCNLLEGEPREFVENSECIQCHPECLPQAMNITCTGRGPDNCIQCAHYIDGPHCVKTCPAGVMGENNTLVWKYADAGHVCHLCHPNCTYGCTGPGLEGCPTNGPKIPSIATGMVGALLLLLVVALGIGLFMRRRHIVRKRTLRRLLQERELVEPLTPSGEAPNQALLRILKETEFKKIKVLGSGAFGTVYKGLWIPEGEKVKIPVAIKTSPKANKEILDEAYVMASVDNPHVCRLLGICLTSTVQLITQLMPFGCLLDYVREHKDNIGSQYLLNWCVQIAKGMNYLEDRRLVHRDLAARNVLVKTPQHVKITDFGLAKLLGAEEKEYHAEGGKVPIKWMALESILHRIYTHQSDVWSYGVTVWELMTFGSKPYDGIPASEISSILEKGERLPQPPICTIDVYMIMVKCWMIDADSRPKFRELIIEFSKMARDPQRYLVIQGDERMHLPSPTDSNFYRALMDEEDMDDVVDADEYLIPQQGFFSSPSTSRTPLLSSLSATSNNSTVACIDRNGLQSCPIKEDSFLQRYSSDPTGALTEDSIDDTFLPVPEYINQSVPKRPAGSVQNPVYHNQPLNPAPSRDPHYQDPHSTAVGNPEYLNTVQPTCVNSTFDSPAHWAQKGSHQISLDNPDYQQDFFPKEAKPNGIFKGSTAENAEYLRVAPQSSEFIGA
How it was run: (§1)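 BaF3 (WT, Del19/T790M/C797S) and HCC827 cells exposed 16 h at 37 °C, 5% CO2 to compounds in 0.2% DMSO medium, 8 doses from 10 uM top, 5-fold steps. Lysates read by HTRF (665/620 nm); degradation % vs DMSO control, DC50 from four-parameter fit, Dmax as maximal degradation.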

[2] = target: T3, EGFR L858R/T790M/C797S (BaF3-LTC cells) (Homo sapiens, UniProt P00533, C797S/L858R/T790M); assay: EGFR degradation HTRF assay, BaF3-LTC cells; settings: BaF3-LTC, 16h treatment; for Dmax: maximum percentage of degradation, read-out: LTC Dmax (%); for DC50: read-out: LTC DC50
T3 construct: expressed in transfected cells; host or cells: BaF3
T3 sequence (P00533 25-1210 T790M/C797S/L858R): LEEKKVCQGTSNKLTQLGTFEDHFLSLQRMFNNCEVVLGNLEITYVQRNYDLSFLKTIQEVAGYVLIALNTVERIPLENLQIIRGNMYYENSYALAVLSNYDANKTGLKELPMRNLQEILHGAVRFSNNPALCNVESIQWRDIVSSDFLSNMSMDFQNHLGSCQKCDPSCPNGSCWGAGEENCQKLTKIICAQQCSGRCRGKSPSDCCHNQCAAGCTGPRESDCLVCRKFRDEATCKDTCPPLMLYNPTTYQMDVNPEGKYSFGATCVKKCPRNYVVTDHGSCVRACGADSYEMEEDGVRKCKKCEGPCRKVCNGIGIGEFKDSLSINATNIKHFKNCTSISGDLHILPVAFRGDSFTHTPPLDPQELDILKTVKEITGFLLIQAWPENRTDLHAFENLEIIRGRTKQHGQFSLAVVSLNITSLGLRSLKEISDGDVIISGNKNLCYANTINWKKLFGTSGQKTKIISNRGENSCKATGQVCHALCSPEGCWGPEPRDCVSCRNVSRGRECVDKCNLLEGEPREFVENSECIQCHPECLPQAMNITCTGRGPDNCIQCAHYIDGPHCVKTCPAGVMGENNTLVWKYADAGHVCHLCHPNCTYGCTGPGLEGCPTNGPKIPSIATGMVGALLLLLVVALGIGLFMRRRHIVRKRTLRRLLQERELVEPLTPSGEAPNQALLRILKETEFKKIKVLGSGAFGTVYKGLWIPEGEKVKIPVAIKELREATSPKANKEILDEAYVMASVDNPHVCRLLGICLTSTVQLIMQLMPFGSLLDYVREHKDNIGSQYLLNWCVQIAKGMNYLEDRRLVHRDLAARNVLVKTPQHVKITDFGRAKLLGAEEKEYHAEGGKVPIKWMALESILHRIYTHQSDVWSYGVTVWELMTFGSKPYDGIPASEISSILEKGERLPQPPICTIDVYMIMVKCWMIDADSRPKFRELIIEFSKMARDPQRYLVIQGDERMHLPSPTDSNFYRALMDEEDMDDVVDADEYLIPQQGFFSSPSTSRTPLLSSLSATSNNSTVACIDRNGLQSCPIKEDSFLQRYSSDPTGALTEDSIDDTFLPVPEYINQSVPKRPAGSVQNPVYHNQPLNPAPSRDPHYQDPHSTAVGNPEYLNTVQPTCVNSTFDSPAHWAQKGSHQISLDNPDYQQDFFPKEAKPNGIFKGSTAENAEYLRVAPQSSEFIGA
How it was run: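 EGFR remaining after a 16 h, 37 °C exposure (8 doses, 5-fold steps from 10 uM final, 0.2% DMSO) was quantified by HTRF antibodies in cell lysate. Percent inhibition relative to DMSO control was fitted by four-parameter logistic to give DC50; Dmax denotes maximal degradation.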

[3] = tested on: EGFR Del19/T790M/C797S (BaF3-DTC cells); assay: EGFR degradation HTRF assay, BaF3-DTC cells; settings: 16h treatment; for DTC Dmax (%): maximum percentage of degradation; for DC50: read-out: DTC DC50
How it was run: as §1

Row | SMILES | DC50 [1] [µM] | Dmax [1] [%] | DC50 (EGFR (HCC827 cells)) [µM] | Dmax (EGFR (HCC827 cells)) [%] | Dmax [2] [%] | DC50 [2] [µM] | DTC Dmax (%) [3] [%] | DC50 [3] [µM]
1 | CCc1cc(Nc2ncc(Br)c(Nc3ccc4nccnc4c3P(C)(C)=O)n2)c(OC)cc1N1CCC(N2CCN(CCc3cc(F)c(C4CCC(=O)NC4=O)c(F)c3)CC2)CC1 (stereo not shown) [Example 11, 3-(4-(2-(4-(1-(4-((5-bromo-4-((5-(dimethylphosphoryl)quinoxalin-6-yl)amino)pyrimidin-2-yl)amino)-2-ethyl-5-methoxyphenyl)piperidin-4-yl)piperazin-1-yl)ethyl)-2,6-difluorophenyl)piperidine-2,6-dione] | 0.00541 | 97.4 | 0.00284 | 86.4 | 91.9 | – | – | –
2 | CCc1cc(Nc2ncc(Br)c(Nc3ccc4nccnc4c3P(C)(C)=O)n2)c(OC)cc1N1CCC(N2CCN(C[C@H]3CCN(c4ccc(C5CCC(=O)NC5=O)cc4)C3)CC2)CC1 (stereo partly drawn) [Example 220, 3-(4-((R)-3-((4-(1-(4-((5-bromo-4-((5-(dimethylphosphoryl)quinoxalin-6-yl)amino)pyrimidin-2-yl)amino)-2-ethyl-5-methoxyphenyl)piperidin-4-yl)piperazin-1-yl)methyl)pyrrolidin-1-yl)phenyl)piperidine-2,6-dione] | 0.0088 | 85.6 | 0.0051 | 77.7 | 88.8 | 0.0432 | 86 | 0.0182
3 | CCc1cc(Nc2ncc(Br)c(Nc3ccc4nccnc4c3P(C)(C)=O)n2)c(OC)cc1N1CCC(N2CCN(CCc3cccc4c3n(C)c(=O)n4C3CCC(=O)NC3=O)CC2)CC1 (stereo not shown) [Example 318, 3-(4-(2-(4-(1-(4-((5-bromo-4-((5-(dimethylphosphoryl)quinoxalin-6-yl)amino)pyrimidin-2-yl)amino)-2-ethyl-5-methoxyphenyl)piperidin-4-yl)piperazin-1-yl)ethyl)-3-methyl-2-oxo-2,3-dihydro-1H-benzo[d]imidazol-1-yl)piperidine-2,6-dione] | 0.00214 | 88.8 | 0.000601 | 85.2 | 93.3 | 0.0044 | 91.99 | 0.0031
4 | CCc1cc(Nc2ncc(Br)c(Nc3ccc4nccnc4c3P(C)(C)=O)n2)c(OC)cc1N1CCC(N2CCN(CCc3ccc(C4CCC(=O)NC4=O)c(F)c3F)CC2)CC1 (stereo not shown) [Example 10, 3-(4-(2-(4-(1-(4-((5-bromo-4-((5-(dimethylphosphoryl)quinoxalin-6-yl)amino)pyrimidin-2-yl)amino)-2-ethyl-5-methoxyphenyl)piperidin-4-yl)piperazin-1-yl)ethyl)-2,3-difluorophenyl)piperidine-2,6-dione] | 0.0159 | 82.6 | 0.0123 | 83.3 | 88.7 | 0.0833 | 85.51 | 0.0155
5 | COc1cc(N2CCC(N3CCN(CCCC4CN(c5ccc6c(c5)C(=O)N(C5CCC(=O)NC5=O)C6=O)C4)CC3)CC2)ccc1Nc1ncc(Cl)c(Nc2ccccc2P(C)(C)=O)n1 (stereo not shown) [Example 118, 5-(3-(3-(4-(1-(4-((5-chloro-4-((2-(dimethylphosphoryl)phenyl)amino)pyrimidin-2-yl)amino)-3-methoxyphenyl)piperidin-4-yl)piperazin-1-yl)propyl)azetidin-1-yl)-2-(2,6-dioxopiperidin-3-yl)isoindoline-1,3-dione] | 0.0247 | 82.4 | 0.0227 | 76 | – | – | – | –
6 | COc1cc(N2CCN(CC3CCN(c4ccc(N5CCC(=O)NC5=O)cc4C)CC3)CC2)c(C)cc1Nc1ncc(Br)c(Nc2ccc3nccnc3c2P(C)(C)=O)n1 [Example 98, 1-(4-(4-((4-(4-((5-bromo-4-((5-(dimethylphosphoryl)quinoxalin-6-yl)amino)pyrimidin-2-yl)amino)-5-methoxy-2-methylphenyl)piperazin-1-yl)methyl)piperidin-1-yl)-3-methylphenyl)dihydropyrimidine-2,4(1H,3H)-dione] | > 10 | 8.3 | 0.166 | 62.3 | – | – | – | –
7 | COc1cc(N2CCC(N3CCN(CCCOc4ccc(NC5CCC(=O)NC5=O)cc4)CC3)CC2)ccc1Nc1ncc(Cl)c(Nc2ccccc2NS(C)(=O)=O)n1 (stereo not shown) [Example 143, N-(2-((5-chloro-2-((4-(4-(4-(3-(4-((2,6-dioxopiperidin-3-yl)amino)phenoxy)propyl)piperazin-1-yl)piperidin-1-yl)-2-methoxyphenyl)amino)pyrimidin-4-yl)amino)phenyl) methanesulfonamide] | 0.00543 | 56.2 | 0.0121 | 73 | – | – | – | –
8 | COc1cc(N2CCN(CCC3CCN(c4ccc(C5CCC(=O)NC5=O)cc4)CC3)CC2)c(C)cc1Nc1ncc(Br)c(Nc2ccc3nccnc3c2P(C)(C)=O)n1 (stereo not shown) [Example 90, 3-(4-(4-(2-(4-(4-((5-bromo-4-((5-(dimethylphosphoryl)quinoxalin-6-yl)amino)pyrimidin-2-yl)amino)-5-methoxy-2-methylphenyl)piperazin-1-yl)ethyl)piperidin-1-yl)phenyl)piperidine-2,6-dione] | 0.00653 | 77.5 | 0.0128 | 81.4 | – | – | – | –
9 | COc1cc(N2CCN(CC3CCN(c4ccc(C5CCC(=O)NC5=O)cc4)CC3)CC2)c(C)cc1Nc1ncc(Br)c(Nc2ccc3nccnc3c2P(C)(C)=O)n1 (stereo not shown) [Example 88, 3-(4-(4-((4-(4-((5-bromo-4-((5-(dimethylphosphoryl)quinoxalin-6-yl)amino)pyrimidin-2-yl)amino)-5-methoxy-2-methylphenyl)piperazin-1-yl)methyl)piperidin-1-yl)phenyl)piperidine-2,6-dione] | 0.00354 | 54.5 | 0.0219 | 68.7 | – | – | – | –
10 | CCc1cc(Nc2ncc(Br)c(Nc3ccc4nccnc4c3P(C)(C)=O)n2)c(OC)cc1N1CCC(N2CCN(CCOc3ccc(C4CCC(=O)NC4=O)cc3)CC2)CC1 (stereo not shown) [Example 17, 3-(4-(2-(4-(1-(4-((5-bromo-4-((5-(dimethylphosphoryl)quinoxalin-6-yl)amino)pyrimidin-2-yl)amino)-2-ethyl-5-methoxyphenyl)piperidin-4-yl)piperazin-1-yl)ethoxy)phenyl)piperidine-2,6-dione formate] | > 10 | 6.77 | 0.0254 | 73.3 | – | – | – | –
11 | CCc1cc(Nc2ncc(Br)c(Nc3ccc4nccnc4c3P(C)(C)=O)n2)c(OC)cc1N1CCC(N2CCN(CCc3ccc(C4CCC(=O)NC4=O)c(Cl)c3)CC2)CC1 (stereo not shown) [Example 4, 3-(4-(2-(4-(1-(4-((5-bromo-4-((5-(dimethylphosphoryl)quinoxalin-6-yl)amino)pyrimidin-2-yl)amino)-2-ethyl-5-methoxyphenyl)piperidin-4-yl)piperazin-1-yl)ethyl)-2-chlorophenyl)piperidine-2,6-dione] | 0.00744 | 75.4 | 0.0111 | 83.6 | – | – | – | –
12 | COc1cc(N2CCN(CC3CCN(c4ccc(C5CCC(=O)NC5=O)cc4)CC3)CC2)ccc1Nc1ncc(Cl)c(Nc2ccccc2P(C)(C)=O)n1 (stereo not shown) [Example 105, 3-(4-(4-((4-(4-((5-chloro-4-((2-(dimethylphosphoryl)phenyl)amino)pyrimidin-2-yl)amino)-3-methoxyphenyl)piperazin-1-yl)methyl)piperidin-1-yl)phenyl)piperidine-2,6-dione] | 0.0122 | 83.7 | 0.016 | 67.2 | – | – | – | –
13 | COc1cc(N2CCC(N3CCN(CCc4ccc(NC5CCC(=O)NC5=O)cc4)CC3)CC2)ccc1Nc1ncc(Cl)c(Nc2ccccc2N(C)S(C)(=O)=O)n1 (stereo not shown) [Example 126, N-(2-((5-chloro-2-((4-(4-(4-(4-((2,6-dioxopiperidin-3-yl)amino)phenethyl)piperazin-1-yl)piperidin-1-yl)-2-methoxyphenyl)amino)pyrimidin-4-yl)amino)phenyl)-N-methylmethanesulfonamide] | 0.00261 | 83.9 | 0.0191 | 84 | – | – | – | –
14 | COc1cc(N2CCN(CC3CCN(c4ccc(C5CCC(=O)NC5=O)cc4)CC3)CC2)ccc1Nc1ncc(Br)c(Nc2ccc3nccnc3c2P(C)(C)=O)n1 (stereo not shown) [Example 89, 3-(4-(4-((4-(4-((5-bromo-4-((5-(dimethylphosphoryl)quinoxalin-6-yl)amino)pyrimidin-2-yl)amino)-3-methoxyphenyl)piperazin-1-yl)methyl)piperidin-1-yl)phenyl)piperidine-2,6-dione] | 0.00623 | 84.7 | 0.0596 | 91.8 | – | – | – | –
15 | COc1cc(N2CCC(N(C)CC3CCN(c4ccc(N5CCC(=O)NC5=O)c(C)c4)CC3)CC2)c(C)cc1Nc1ncc(Br)c(Nc2ccc3nccnc3c2P(C)(C)=O)n1 [Example 83, 1-(4-(4-(((1-(4-((5-bromo-4-((5-(dimethylphosphoryl)quinoxalin-6-yl)amino)pyrimidin-2-yl)amino)-5-methoxy-2-methylphenyl)piperidin-4-yl)(methyl)amino)methyl)piperidin-1-yl)-2-methylphenyl)dihydropyrimidine-2,4(1H,3H)-dione] | > 10 | 14.7 | 0.0203 | 74.2 | – | – | – | –
